Data: PMC8039949, “A novel small-molecule PROTAC selectively promotes tau clearance to improve cognitive functions in Alzheimer-like models” (Theranostics, 2021)

What was measured:
hTau transgenic mice = experiment: Multiple-doses subcutaneous administration in hTau transgenic mice, behavior and dendritic morphology; type: in vivo, mouse; settings: 12 m-old hTau transgenic mice, subcutaneous 3 mg/kg once every 6 days, 5 times
Procedure: (§1) The Open field (OF) test was consisted of a 5 min session in a quadrate chamber (white opaque plastic). The chamber was divided into 16 square regions, a central field (center 4 square regions) and a periphery field. Each mouse was placed in the same position at the start of the test. Behaviors were recorded and analyzed by the video tracking system (Chengdu Taimeng Software Co., Ltd, China).
(§2) For novel object recognition (NOR) test, the mice were habituated to a quadrate chamber (white opaque plastic) for 5 min without objects 24 h prior to the test. The chamber was cleaned with 75% ethanol between each habituation period. The day after the mice re-entered the chamber from the same starting point and were given 10 min to familiarize themselves with the object A and object B. After each period the chamber and objects were cleaned with 75% ethanol. The next day after the familiarization period, object B was replaced with noval object C, and the mice were given 10 min to explore both objects. The exploring time in object A (TA) and C (TC) was recorded using the video tracking system. The discrimination index was calculated by (TC-TA)/(TA+TC).
(§3) The Elevated plus maze (EPM) test was performed as follows: mice were placed at the junction of the four arms of the maze (white opaque plastic), and started the test from facing an open arm. The chambers were cleaned with 75% ethanol before the next mouse was trained. The entries and duration time in each arm were recorded for 5 min by the video tracking system (Chengdu Taimeng Software Co., Ltd, China). An increase in open arm activity (duration and/or entries) reflects anti-anxiety behavior.
(§4) The Morris water maze (MWM) test was conducted to assess the spatial learning and memory. The maze was filled with water and divided into 4 quadrants with a platform placed in one quadrant. The mice were trained to find the hidden platform for 6 consecutive days, and underwent […] training trials (once per quadrant) per day from 14:00 to 20:00 pm. In each training trial, the mouse started from one of four quadrants facing the wall of the pool and the trial ended when the animal climbed on the platform. […] The spatial memory was tested 1 d after the last training by removed the platform. The longer a mouse stayed in the previous platform-located quadrant, the better it scored the spatial memory. A video camera, fixed to the ceiling 1.5 m from the water surface, was used to record the swimming path and the time for mice to find the platform (latency) or to pass through the previous platform-located quadrant each day. The camera was connected to a digital-tracking device attached to an IBM computer (Armonk, NY).
(§5) For fear conditioning (FC) test, the mice were placed into a square chamber with a grid floor. On the first day (day 1), each mouse was habituated to the chamber for 3 min, and then a foot shock (0.9 mA, 3 s) was delivered. Three sequential foot shocks at 3 min intervals were applied. Then the mice were returned to their home cages. On the next day (day 2), the mice were exposed to the same chamber without any stimulus for 3 min. The contextual conditioning was assessed by recording freezing behavior during the 3 min exposure. Freezing time during the 3 min was recorded for assessment of memory.
Golgi staining was performed by using a Rapid GolgiStain Kit (FD neurotechnologies, PK401) according to the manufacturer's instructions. Briefly, the animals were sacrificed and perfused for 5 min with PBS. All procedures were performed under dark condition. Brains were dissected out and immersed in impregnation solution (equal volumes of Solutions A and B, containing mercuric chloride, potassium dichromate, and potassium chromate, mixed for 24 h in advance), and stored at room temperature. Impregnation solution was replaced after 24 h. After 4 weeks, brains were transferred to Solution C and stored at 4 °C for 72 h, with the solution replaced after 24 h. […]

tau = tau (Mus musculus, UniProt P10637); experiment: Intragastrical gavage in wild-type mice, brain tau by Western blotting; type: in vivo; settings: 4 m-old wild-type mice; intragastrical gavage 20 mg/kg; 48 h
Procedure: The cells or hippocampal/cortex tissues were homogenized for ~ 30 min on ice in buffer [50 mM Tris·HCl pH 7.4-7.5, 100 mM NaCl, 1% (vol/vol) Triton X-100, 5 mM EDTA, 1:100 PMSF, 1:1,000 protease inhibitor cocktail containing 4-(2-Aminoethyl)-benzenesulfonyl fluoride hydrochloride, aprotinin, bestatin, leupeptin, E-64, and pepstatin A stored at 4 °C], and then centrifuged at 12,000 × g at 4 °C for 20 min. The supernatant was collected and the protein levels were analyzed using bicinchoninic acid (BCA, KF016, Sigma-Aldrich) by following the manufacturer's instruction (served as soluble protein). The pellet was further incubated with 8% (wt/vol) SDS buffer at 4 °C and then treated by ultrasonic wave to reach a complete resuspension. The suspension was spun (18,000 × g, 4 °C for 20 min) and the supernatant collected (served as insoluble fraction). The supernatant of different faction was respectively mixed with loading buffer (3:1, vol/vol) containing 200 mM Tris-HCl, pH 6.8, 8% SDS, 40% glycerol, and boiled for 10 min. For Western blotting, the proteins were separated by 10% SDS-polyacrylamide gel via electrophoresis for about 2 h and transferred to nitrocellulose membranes ([…]) for 1 h. […] Immunoreactive bands were quantitatively analyzed by Image J2x software.

3xTg-AD mice = experiment: Multiple-doses subcutaneous administration in 3xTg-AD mice, behavior and synaptic function; type: in vivo, mouse; settings: 9.5 m-old 3xTg-AD mice, subcutaneous 3 mg/kg every 6 days, 5 times
Procedure: as §1, §2, §3, §4, §5
Mice used for electrophysiology experiments were deeply anesthetized as described above. When all pedal reflexes were abolished, brains were removed and placed in ice-cold oxygenated slicing solution containing the following: 225 mM sucrose, 3 mM KCl, 1.25 mM NaH2PO4, 24 mM NaHCO3, 6 mM MgSO4, 0.5 mM CaCl2, and 10 mM D-glucose. Coronal slices (300 μm thickness) were cut at 4-5 °C in the slicing solution using a Leica VT1000S vibratome and then transferred to an incubation chamber filled with oxygenated slicing solution in a 30 °C water bath for 1 h before being recorded. […]

Chain of tau (P10637 114-430 isoform P10637-2 limits assumed): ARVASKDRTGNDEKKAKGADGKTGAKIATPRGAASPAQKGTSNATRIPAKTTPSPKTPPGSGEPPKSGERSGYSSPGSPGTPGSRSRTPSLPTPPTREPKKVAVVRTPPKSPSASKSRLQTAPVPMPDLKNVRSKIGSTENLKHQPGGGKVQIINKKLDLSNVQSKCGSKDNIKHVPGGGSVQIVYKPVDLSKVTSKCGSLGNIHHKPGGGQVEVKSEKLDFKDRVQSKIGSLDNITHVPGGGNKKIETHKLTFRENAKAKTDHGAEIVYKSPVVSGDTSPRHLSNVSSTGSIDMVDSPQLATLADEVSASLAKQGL

CC(=O)N1CCCN(c2nc(NCCc3cccs3)nc(N(C)CC(=O)NCCOCCOCCOCC(=O)N[C@H](C(=O)N3C[C@H](O)C[C@H]3C(=O)NCc3ccc(-c4scnc4C)cc3)C(C)(C)C)n2)CC1 [C004019]
duration time in the open arm, elevated plus maze (EPM) (hTau transgenic mice): no significant changes were detected
fear condition (FC) test, freezing index (hTau transgenic mice): improved freezing index
free movement in open field (OF) test (hTau transgenic mice): no significant changes were detected
novel object recognition (NOR) test (hTau transgenic mice): increased time exploring new object
neurite arborization and spine density in hippocampal DG (hTau transgenic mice; Golgi-cox staining and Sholl analysis): significantly increased
Morris water maze (MWM) test, latency (hTau transgenic mice; learning trial and probe trial): decreased latency to find the platform
tau level in hippocampus and cortex (tau): no significant tau reduction was detected
FC test, freezing index (3xTg-AD mice): restored the freezing index
NOR test, discrimination index (3xTg-AD mice): almost completely restored the memory ability
motor and anxiety levels (OF and EPM tests) (3xTg-AD mice): did not significantly affect the motor and anxiety levels
MWM test, latency to reach the platform (3xTg-AD mice; 6 days learning trial): shorter latency to reach the platform
spine density (3xTg-AD mice; Golgi-cox staining): restored spine density
neurite arborization (3xTg-AD mice; Sholl analysis): didn't have any effect on neurite arborization
LTP induction (fEPSP amplitude and slope) (3xTg-AD mice; hippocampal slices): restored
